In one assay the target is T1, human recombinant HDAC1 (Homo sapiens, UniProt Q13547).
T1 construct: purchased Enzo Life Science BML-SE456
Kind of assay: HDAC1 enzyme activity inhibition assay (in vitro, fluorimetric). The following applies: human recombinant HDAC1, fluorimetric kit, 30° C. 60 minutes. Format: biochemical. A digest of the protocol: (§1)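 Human recombinant enzyme (0.3 μg for HDAC1) reacted with 10 μM Fluor de Lys-SIRT1 substrate and 5-fold compound dilutions at 30 °C for 60 min, then developer for 30 min. Fluorescence read at Ex 360/Em 460; IC50 calculated. HDAC6 run by the same protocol.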

The next assay has as its target T2, human recombinant HDAC6 (Homo sapiens, UniProt Q9UBN7).
T2 construct: purchased Calbiochem 382180
T2 sequence (Q9UBN7 1-1215): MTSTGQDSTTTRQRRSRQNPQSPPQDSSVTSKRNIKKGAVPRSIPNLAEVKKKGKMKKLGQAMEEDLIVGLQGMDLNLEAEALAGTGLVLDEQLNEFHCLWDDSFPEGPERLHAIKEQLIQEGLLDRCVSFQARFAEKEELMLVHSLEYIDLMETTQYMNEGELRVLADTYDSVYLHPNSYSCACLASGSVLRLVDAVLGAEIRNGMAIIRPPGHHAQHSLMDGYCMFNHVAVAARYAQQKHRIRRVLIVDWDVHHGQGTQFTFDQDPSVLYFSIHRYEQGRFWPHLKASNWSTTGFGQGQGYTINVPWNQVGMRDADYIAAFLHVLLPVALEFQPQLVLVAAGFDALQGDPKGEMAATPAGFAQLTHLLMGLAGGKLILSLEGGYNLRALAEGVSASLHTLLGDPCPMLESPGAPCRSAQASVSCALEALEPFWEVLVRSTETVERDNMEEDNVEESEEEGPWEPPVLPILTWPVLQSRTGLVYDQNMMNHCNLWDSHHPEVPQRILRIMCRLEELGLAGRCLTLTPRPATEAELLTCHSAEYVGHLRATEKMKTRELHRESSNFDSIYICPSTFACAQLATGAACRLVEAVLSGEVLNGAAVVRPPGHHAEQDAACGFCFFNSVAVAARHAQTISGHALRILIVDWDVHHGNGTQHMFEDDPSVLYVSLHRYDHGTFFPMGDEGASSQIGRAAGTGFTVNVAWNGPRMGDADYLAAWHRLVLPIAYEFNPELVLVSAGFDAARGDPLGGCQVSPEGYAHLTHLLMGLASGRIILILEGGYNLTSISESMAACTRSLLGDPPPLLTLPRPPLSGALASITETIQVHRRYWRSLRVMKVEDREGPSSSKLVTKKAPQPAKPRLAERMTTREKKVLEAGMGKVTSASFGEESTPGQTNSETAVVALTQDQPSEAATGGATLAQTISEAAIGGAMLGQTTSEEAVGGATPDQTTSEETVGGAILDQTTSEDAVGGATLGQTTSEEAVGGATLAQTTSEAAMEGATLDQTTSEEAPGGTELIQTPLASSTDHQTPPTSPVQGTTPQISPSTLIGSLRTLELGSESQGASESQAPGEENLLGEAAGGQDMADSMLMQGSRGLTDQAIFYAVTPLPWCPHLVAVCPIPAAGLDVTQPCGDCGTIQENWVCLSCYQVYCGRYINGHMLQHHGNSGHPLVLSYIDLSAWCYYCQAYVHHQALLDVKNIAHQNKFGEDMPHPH
Description: HDAC6 enzyme activity inhibition assay (in vitro, fluorimetric). It is filed as biochemical. The following applies: for HDAC6 selectivity (fold): HDAC6 selectivity over HDAC1; for IC50: human recombinant HDAC6, fluorimetric kit, same protocol as HDAC1. In outline:
as §1

Molecules are shown by their SMILES.

The term IC50 denotes the point on the concentration scale where inhibition reaches its midpoint.

T1 sequence (Q13547 whole entry): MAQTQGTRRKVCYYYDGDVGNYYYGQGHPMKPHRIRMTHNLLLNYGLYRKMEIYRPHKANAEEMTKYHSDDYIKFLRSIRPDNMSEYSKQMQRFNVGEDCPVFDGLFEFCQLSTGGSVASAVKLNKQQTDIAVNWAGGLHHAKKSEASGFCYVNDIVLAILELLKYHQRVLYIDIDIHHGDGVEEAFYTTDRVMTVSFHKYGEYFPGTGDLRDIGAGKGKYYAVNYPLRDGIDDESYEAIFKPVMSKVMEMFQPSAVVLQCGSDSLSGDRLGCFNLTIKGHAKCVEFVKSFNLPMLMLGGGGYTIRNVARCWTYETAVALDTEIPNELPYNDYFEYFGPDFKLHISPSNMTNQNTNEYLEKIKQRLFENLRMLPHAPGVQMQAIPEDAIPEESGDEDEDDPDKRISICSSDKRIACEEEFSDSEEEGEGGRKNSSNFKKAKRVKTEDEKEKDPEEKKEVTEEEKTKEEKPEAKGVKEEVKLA

With `CC(CN(C)Cc1ccccc1)NCc1cccc(CN2[C@H](C)CN(Cc3ccc(C(=O)NO)cc3)C[C@@H]2C)c1` (stereo partly drawn) [Compound 456, 4-(((3R,5S)-4-(3-(((1-(benzyl(methyl)amino)propan-2-yl)amino)methyl)benzyl)-3,5-dimethylpiperazin-1-yl)methyl)-N-hydroxybenzamide], the IC50 at human recombinant HDAC1 amounted to 11100 nM. For the same molecule, at human recombinant HDAC6, the “HDAC6 selectivity (fold)” value is 77 fold and the half-inhibitory concentration (IC50) amounted to 144 nM.

Turning to `C[C@@H]1CN(Cc2ccc(C(=O)NO)cc2)C[C@H](C)N1C(=O)c1ccccc1-c1ccco1` [Compound 283, 4-(((3R,5S)-4-(2-(furan-2-yl)benzoyl)-3,5-dimethylpiperazin-1-yl)methyl)-N-hydroxybenzamide], the IC50 at human recombinant HDAC1 was found to be 3500 nM; at human recombinant HDAC6, 23 nM. For the same molecule, the “HDAC6 selectivity (fold)” value at human recombinant HDAC6 is recorded as 154 fold.

Consider `CCCC(=O)N1[C@H](C)CN(Cc2ccc(C(=O)NO)cc2)C[C@@H]1C` [Compound 294, 4-(((3R,5S)-4-butyryl-3,5-dimethylpiperazin-1-yl)methyl)-N-hydroxybenzamide], for which the half-inhibitory concentration (IC50) at human recombinant HDAC1 is 8200 nM. In addition, at human recombinant HDAC6, the “HDAC6 selectivity (fold)” value is on record as 37 fold and the IC50 is 220 nM.

As for `C[C@@H]1CN(Cc2ccc(C(=O)NO)cc2)C[C@H](C)N1Cc1cccc(-c2ccncc2)c1` [Compound 345, 4-(((3R,5S)-3,5-dimethyl-4-(3-(pyridin-4-yl)benzyl)piperazin-1-yl)methyl)-N-hydroxybenzamide], the half-maximal inhibitory concentration (IC50) on human recombinant HDAC1 came out at 5500 nM. On human recombinant HDAC6, the “HDAC6 selectivity (fold)” value came to 341 fold and the half-maximal inhibitory concentration (IC50) amounted to 16 nM.

On to `C[C@@H]1CN(Cc2ccccc2)C[C@H](C)N1Cc1ccc(C(=O)NO)c(F)c1` [Compound 174, 4-(((2S,6R)-4-benzyl-2,6-dimethylpiperazin-1-yl)methyl)-2-fluoro-N-hydroxybenzamide], for which the IC50 on human recombinant HDAC1 is over 10000 nM; on human recombinant HDAC6 it was 97 nM. The “HDAC6 selectivity (fold)” value on human recombinant HDAC6 was over 103 fold.

Turning to `Cc1cccc(NC(=O)N2C[C@@H](C)N(Cc3ccc(C(=O)NO)cc3)[C@@H](C)C2)c1` [Compound 167, (3R,5S)-4-(4-(hydroxycarbamoyl)benzyl)-3,5-dimethyl-N-m-tolylpiperazine-1-carboxamide], the IC50 stood at 800 nM at human recombinant HDAC1 and 77 nM at human recombinant HDAC6. For the same molecule, the “HDAC6 selectivity (fold)” value on human recombinant HDAC6 was determined as 10 fold.

For the molecule `C[C@@H]1CN(Cc2cccc(CN3CCCC3)c2)C[C@H](C)N1Cc1ccc(C(=O)NO)cc1` [Compound 479, 4-(((2S,6R)-2,6-dimethyl-4-(3-(pyrrolidin-1-ylmethyl)benzyl)piperazin-1-yl)methyl)-N-hydroxybenzamide], the IC50 on human recombinant HDAC1 was determined as 5300 nM. Further, on human recombinant HDAC6, the “HDAC6 selectivity (fold)” value is 12 fold and the 50% inhibitory concentration (IC50) stood at 433 nM.

Regarding `C[C@@H]1CN(Cc2ccc(C(=O)NO)nc2)C[C@H](C)N1Cc1cccc(CN2CCOCC2)c1` [Compound 609, 5-(((3R,5S)-3,5-dimethyl-4-(3-(morpholinomethyl)benzyl)piperazin-1-yl)methyl)-N-hydroxypicolinamide], the concentration for half-maximal inhibition (IC50) on human recombinant HDAC1 is over 10000 nM; on human recombinant HDAC6, 754 nM. The “HDAC6 selectivity (fold)” value on human recombinant HDAC6 is on record as over 13.3 fold.

For `C[C@@H]1CN(CCCCCC(=O)NO)C[C@H](C)N1Cc1ccccc1` [Compound 154, 6-((3R,5S)-4-benzyl-3,5-dimethylpiperazin-1-yl)-N-hydroxyhexanamide], the IC50 on human recombinant HDAC1 was 8400 nM; at human recombinant HDAC6, 193 nM. For the same molecule, the “HDAC6 selectivity (fold)” value at human recombinant HDAC6 amounted to 44 fold.

On to `CCN(CC)Cc1cccc(C(=O)N2[C@H](C)CN(Cc3ccc(C(=O)NO)cc3)C[C@@H]2C)c1` [Compound 425, 4-(((3R,5S)-4-(3-((diethylamino)methyl)benzoyl)-3,5-dimethylpiperazin-1-yl)methyl)-N-hydroxybenzamide], for which the half-inhibitory concentration (IC50) on human recombinant HDAC1 worked out at 1500 nM; on human recombinant HDAC6, 86 nM. Besides, on human recombinant HDAC6, the “HDAC6 selectivity (fold)” value is recorded as 17 fold.

For `C[C@@H]1CN(Cc2ccc(C(=O)NO)cc2)C[C@H](C)N1C(=O)c1ccccc1C1=CCOCC1` [Compound 326, 4-(((3R,5S)-4-(2-(3,6-dihydro-2H-pyran-4-yl)benzoyl)-3,5-dimethylpiperazin-1-yl)methyl)-N-hydroxybenzamide], the figures for the half-inhibitory concentration (IC50) on human recombinant HDAC1 and on human recombinant HDAC6 were over 10000 nM and 58 nM, respectively. Also, the “HDAC6 selectivity (fold)” value at human recombinant HDAC6 is over 172 fold.

On to `C[C@@H]1CN(Cc2ccc(C(=O)NO)cc2)C[C@H](C)N1C(=O)c1ccccc1-c1ccncc1` [Compound 285, 4-(((3R,5S)-3,5-dimethyl-4-(2-(pyridin-4-yl)benzoyl)piperazin-1-yl)methyl)-N-hydroxybenzamide], for which the 50% inhibitory concentration (IC50) at human recombinant HDAC1 is 7000 nM. Moreover, on human recombinant HDAC6, the “HDAC6 selectivity (fold)” value was 75 fold and the IC50 came out at 93 nM.

On to `C[C@@H]1CN(Cc2ccc(CC(=O)NO)cc2)C[C@H](C)N1Cc1ccccc1` [Compound 173, 2-(4-(((3R,5S)-4-benzyl-3,5-dimethylpiperazin-1-yl)methyl)phenyl)-N-hydroxyacetamide], for which the half-inhibitory concentration (IC50) at human recombinant HDAC1 was determined as 7200 nM. In addition, at human recombinant HDAC6, the “HDAC6 selectivity (fold)” value worked out at 85 fold and the IC50 was found to be 85 nM.

For `C[C@@H]1CN(C(=O)Cc2cccc(-c3ccncc3)c2)C[C@H](C)N1Cc1ccc(C(=O)NO)cc1` [Compound 251, 4-(((2S,6R)-2,6-dimethyl-4-(2-(3-(pyridin-4-yl)phenyl)acetyl)piperazin-1-yl)methyl)-N-hydroxybenzamide], the IC50 at human recombinant HDAC1 was determined as 13700 nM. Besides, at human recombinant HDAC6, the “HDAC6 selectivity (fold)” value came out at 57 fold and the IC50 stood at 242 nM.

On to `C[C@@H]1CN(C(=O)Nc2ccccc2)C[C@H](C)N1Cc1ccc(C(=O)NO)cc1` [Compound 162, (3R,5S)-4-(4-(hydroxycarbamoyl)benzyl)-3,5-dimethyl-N-phenylpiperazine-1-carboxamide], for which the IC50 on human recombinant HDAC1 stood at 400 nM. Moreover, at human recombinant HDAC6, the “HDAC6 selectivity (fold)” value is recorded as 5 fold and the IC50 is 79 nM.

Consider `C[C@@H]1CN(Cc2ccc(C(=O)NO)cc2)C[C@H](C)N1C(=O)Cc1cccc(Cl)c1` [Compound 224, 4-(((3R,5S)-4-(2-(3-chlorophenyl)acetyl)-3,5-dimethylpiperazin-1-yl)methyl)-N-hydroxybenzamide], for which the IC50 on human recombinant HDAC1 turned out to be 1700 nM. In addition, on human recombinant HDAC6, the “HDAC6 selectivity (fold)” value came out at 14 fold and the IC50 was 120 nM.

Take `Cc1cccc(NC(=S)N2C[C@@H](C)N(Cc3ccc(C(=O)NO)cc3)[C@@H](C)C2)c1` [Compound 189, 4-(((2S,6R)-2,6-dimethyl-4-(m-tolylcarbamothioyl)piperazin-1-yl)methyl)-N-hydroxybenzamide]: the results for the half-inhibitory concentration (IC50) at human recombinant HDAC1 and on human recombinant HDAC6 were 3000 nM and 303 nM, respectively. The “HDAC6 selectivity (fold)” value on human recombinant HDAC6 is reported as 10 fold.

In the case of `C[C@@H]1CN(Cc2ccc(C(=O)NO)cc2)C[C@H](C)N1Cc1cccc(CN2CC(F)(F)C2)c1` [Compound 384, 4-(((3R,5S)-4-(3-((3,3-difluoroazetidin-1-yl)methyl)benzyl)-3,5-dimethylpiperazin-1-yl)methyl)-N-hydroxybenzamide], the figures for the IC50 at human recombinant HDAC1 and on human recombinant HDAC6 were over 10000 nM and 106 nM, respectively. The “HDAC6 selectivity (fold)” value on human recombinant HDAC6 is recorded as over 94 fold.

`CC(C)CC(=O)N1[C@H](C)CN(Cc2ccc(C(=O)NO)cc2)C[C@@H]1C` [Compound 297, 4-(((3R,5S)-3,5-dimethyl-4-(3-methylbutanoyl)piperazin-1-yl)methyl)-N-hydroxybenzamide]: the half-inhibitory concentration (IC50) at human recombinant HDAC1 stood at 5600 nM; on human recombinant HDAC6 it was 90 nM. Besides, the “HDAC6 selectivity (fold)” value at human recombinant HDAC6 is 62 fold.

As for `C[C@@H]1CN(Cc2ccc(C(=O)NO)cc2)C[C@H](C)N1Cc1cccc(Cl)c1C(F)(F)F` [Compound 267, 4-(((3R,5S)-4-(3-chloro-2-(trifluoromethyl)benzyl)-3,5-dimethylpiperazin-1-yl)methyl)-N-hydroxybenzamide], the IC50 at human recombinant HDAC1 was 14200 nM. Moreover, on human recombinant HDAC6, the “HDAC6 selectivity (fold)” value was 75 fold and the IC50 is 188 nM.

Values taken from US10287255B2, “Compounds as histone deacetylase 6 inhibitors and pharmaceutical compositions comprising the same” (CHONG KUN DANG PHARMACEUTICAL CORP., priority 2014, dated 2019).
